# Measurements taken from article PMC10641831 (Journal of Medicinal Chemistry, 2023).
# Numbered stars: 1 amine (or outer) side, 2 acyl side, 3 side chain; on linkers, the order of the positions; unused ones are H or OH. Bridge positions count the residues as written; N and C are the ends. Square brackets hold non-standard residues; d marks the D form. Peptide text beside a SMILES is read from it. Phe(4-(Z)-phenylazo) = N[C@@H](Cc1ccc(/N=N\c2ccccc2)cc1)C(=O)O; AMPB(E) = O=C(c1ccc(/N=N/c2ccc(CN[*:1])cc2)cc1)[*:2]; X1 = O=C([C@H](Cc1ccc(/N=N/c2ccccc2)cc1)N[*:1])[*:2]; X2 = O=C(c1ccc(/N=N\c2ccc(CN[*:1])cc2)cc1)[*:2]
# Biological target: T1, hOTR (Homo sapiens, UniProt P30559)
# T1 construct: expressed in transfected cells
# T1 sequence (P30559 1-389): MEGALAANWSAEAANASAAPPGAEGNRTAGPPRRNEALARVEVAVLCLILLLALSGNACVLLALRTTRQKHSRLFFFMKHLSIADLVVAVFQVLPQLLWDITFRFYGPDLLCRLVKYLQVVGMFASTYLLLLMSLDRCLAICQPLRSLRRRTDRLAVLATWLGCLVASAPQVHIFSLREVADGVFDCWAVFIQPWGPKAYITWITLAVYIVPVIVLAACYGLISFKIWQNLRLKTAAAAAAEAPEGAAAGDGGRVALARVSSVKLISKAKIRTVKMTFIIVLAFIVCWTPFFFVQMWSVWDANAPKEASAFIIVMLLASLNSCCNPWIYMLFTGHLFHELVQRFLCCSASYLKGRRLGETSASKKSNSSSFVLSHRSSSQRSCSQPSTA
# Experiment: IP-One accumulation assay, agonist function, HEK293 cells expressing hOTR
# Assay type: cell-based
# Conditions: for Emax: HEK293, relative to the effect of OT, read-out: OTR Emax ± SEM; for EC50: IP-One, stable HEK293 hOTR, E = thermal equilibrium, Z = PSS after 340 nm, read-out: OTR EC50 ± SEM; for OTR E/Z ratio EC50: ratio of EC50 of E- and Z-isomer; for decrease in potency compared to OT at OTR: EC50 vs OT
OTR Emax ± SEM (relative to the effect of OT),SMILES,Emax,EC50,OTR E/Z ratio EC50,decrease in potency compared to OT at OTR
–,CC[C@H](C)[C@@H]1NC(=O)[C@H](Cc2ccc(O)cc2)NC(=O)[C@@H](N)CSSC[C@@H](C(=O)N[C@@H](Cc2ccc(/N=N/c3ccccc3)cc2)C(=O)N[C@@H](CC(C)C)C(=O)NCC(N)=O)NC(=O)[C@H](CC(N)=O)NC(=O)[C@H](CCC(N)=O)NC1=O [E-9] (H-CYIQNC[X1]LG-NH2; disulfide 1-6),89 ± 1%,346 ± 30 nM,2.5,–
–,CC[C@H](C)[C@@H]1NC(=O)[C@H](Cc2ccc(/N=N\c3ccccc3)cc2)NC(=O)[C@@H](N)CSSC[C@@H](C(=O)N2CCC[C@H]2C(=O)N[C@@H](CC(C)C)C(=O)NCC(N)=O)NC(=O)[C@H](CC(N)=O)NC(=O)[C@H](CCC(N)=O)NC1=O [Z-8] (H-C[Phe(4-(Z)-phenylazo)]IQNCPLG-NH2; disulfide 1-6),35 ± 1%,3500 ± 1890 nM,1.3,–
45 ± 3%,CC[C@H](C)[C@@H]1NC(=O)[C@H](Cc2ccc(/N=N/c3ccccc3)cc2)NC(=O)[C@@H](N)CSSC[C@@H](C(=O)N2CCC[C@H]2C(=O)N[C@@H](CC(C)C)C(=O)NCC(N)=O)NC(=O)[C@H](CC(N)=O)NC(=O)[C@H](CCC(N)=O)NC1=O [E-8] (H-C[X1]IQNCPLG-NH2; disulfide 1-6),–,4500 ± 1010 nM,1.3,–
–,CC[C@H](C)[C@@H]1NC(=O)[C@H](Cc2ccc(O)cc2)NC(=O)[C@@H](N)CSSC[C@@H](C(=O)N[C@@H](Cc2ccc(/N=N\c3ccccc3)cc2)C(=O)N[C@@H](CC(C)C)C(=O)NCC(N)=O)NC(=O)[C@H](CC(N)=O)NC(=O)[C@H](CCC(N)=O)NC1=O [Z-9] (H-CYIQNC[Phe(4-(Z)-phenylazo)]LG-NH2; disulfide 1-6),90 ± 1%,136 ± 6 nM,2.5,55 fold
–,CC[C@H](C)[C@@H]1NC(=O)[C@H](Cc2ccc(O)cc2)NC(=O)[C@@H](N)CSSC[C@@H](C(=O)NCc2ccc(/N=N\c3ccc(C(=O)N[C@@H](CC(C)C)C(=O)NCC(N)=O)cc3)cc2)NC(=O)[C@H](CC(N)=O)NC(=O)[C@H](CCC(N)=O)NC1=O [Z-11] (H-CYIQNC[X2]LG-NH2; disulfide 1-6),86 ± 1%,134 ± 17 nM,2.0,55 fold
–,CC[C@H](C)[C@@H]1NC(=O)[C@H](Cc2ccc(O)cc2)NC(=O)[C@@H](N)CSSC[C@@H](C(=O)NCc2ccc(/N=N/c3ccc(C(=O)N[C@@H](CC(C)C)C(=O)NCC(N)=O)cc3)cc2)NC(=O)[C@H](CC(N)=O)NC(=O)[C@H](CCC(N)=O)NC1=O [E-11] (H-CYIQNC[AMPB(E)]LG-NH2; disulfide 1-6),75 ± 1%,263 ± 21 nM,2.0,–
–,CC[C@H](C)[C@@H]1NC(=O)[C@H](Cc2ccc(O)cc2)NC(=O)[C@@H](N)CSSC[C@@H](C(=O)NCc2ccc(/N=N/c3ccc(C(=O)NCC(N)=O)cc3)cc2)NC(=O)[C@H](CC(N)=O)NC(=O)[C@H](CCC(N)=O)NC1=O [E-10] (H-CYIQNC[AMPB(E)]G-NH2; disulfide 1-6),80 ± 1%,94.6 ± 19 nM,3.1,–
–,CC[C@H](C)[C@@H]1NC(=O)[C@H](Cc2ccc(O)cc2)NC(=O)[C@@H](N)CSSC[C@@H](C(=O)NCc2ccc(/N=N\c3ccc(C(=O)NCC(N)=O)cc3)cc2)NC(=O)[C@H](CC(N)=O)NC(=O)[C@H](CCC(N)=O)NC1=O [Z-10] (H-CYIQNC[X2]G-NH2; disulfide 1-6),92%,30.7 ± 4 nM,3.1,12 fold
